According to US12358875B2, “N-(phenyl)-indole-3-sulfonamide derivatives and related compounds as GPR17 modulators for treating CNS disorders such as multiple sclerosis” (UCB Pharma GMBH, priority 2019, dated 2025):

The compounds below were run against GPR17 (Homo sapiens, UniProt Q13304) (assay: cAMP accumulation functional assay (HTRF), Schild analysis against MDL29,951 in CHO hGPR17). Settings: CHO hGPR17, Schild analysis vs MDL29,951, 5 μM forskolin; read-out: cAMP assay pA2 (converted).
GPR17, sequence (Q13304 29-367 limits assumed): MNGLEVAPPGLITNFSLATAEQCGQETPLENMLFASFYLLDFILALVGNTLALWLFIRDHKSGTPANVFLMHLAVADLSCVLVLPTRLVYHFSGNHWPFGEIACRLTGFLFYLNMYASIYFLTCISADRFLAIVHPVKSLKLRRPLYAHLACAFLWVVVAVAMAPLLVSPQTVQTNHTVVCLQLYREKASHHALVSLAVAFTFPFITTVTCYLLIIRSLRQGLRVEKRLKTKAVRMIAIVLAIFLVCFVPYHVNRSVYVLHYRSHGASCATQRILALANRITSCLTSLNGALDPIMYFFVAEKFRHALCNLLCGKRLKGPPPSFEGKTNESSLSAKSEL
Type: cell-based
Design: host or cells: Flp-In T-REx CHO
Protocol: Flp-In T-REx CHO cells stably expressing human GPR17 receptor (CHO hGPR17) from Evi Kostenis' lab (Bonn University, Germany) were cultured at 37° C. in a humidified atmosphere of 5% CO2. Cells were grown in DMEM with Nutrient Mixture F-12 supplemented with hygromycin B (500 μg/ml) and blasticidin (30 μg/ml). Expression from the Flp-In locus was induced by treatment with doxycycline (1 μg/ml) for 16-20 h prior assays.
GPR17 activation can also recruit Gi-type G-protein signaling, resulting in a decrease of intracellular cyclic adenosine monophosphate (cAMP). Intracellular cAMP changes can be measured using the HTRF cAMP dynamic assay kit from CisBio (Codolet, France). Using homogenous time-resolved fluorescence technology (HTRF), the assay is based on competition between native cAMP produced by cells and cAMP labelled with the dye d2. The tracer binding was determined by an anti-cAMP antibody labeled with cryptate.
CHO hGPR17 were detached with PBS containing EDTA and dispatched in black 384-well plates with 5,000 cells per well. Cells were first incubated for 30 minutes at room temperature in HBSS Hepes (pH 7.4) containing vehicle or varying concentrations of test GPR17 antagonist/inverse agonist compounds. Then, a dose response curve of MDL29,951 GPR17 agonist (typically from 10^−5M to 10^−10M) was added on vehicle and on each test GPR17 antagonist/inverse agonist compound concentration in a final volume of 20 μL HBSS Hepes buffer (pH 7.4) containing 1% DMSO, 5 μM forskolin and 0.1 mM IBMX. After 60 minutes incubation at room temperature, the reaction is terminated and the cells lysed by adding the d2 detection reagent and the cryptate reagent in 10 μL lysis buffer each according to manufacturer's instructions. After 60 minutes incubation, changes in cAMP concentrations are measured according to manufacturer's instructions using an Envision plate reader with laser excitation. All incubations were performed in duplicate. Data was analyzed using GraphPad Prism software using the 4-parameter logistic equation to measure MDL29,951 pEC50s in absence and presence of GPR17 antagonist/inverse agonist test compounds. Dose ratio (DR) were plotted against antagonist concentrations and Schild analysis provided estimated affinity pA2 of GPR17 antagonist/inverse agonist test compounds.
The activities of the Example compounds tested are depicted in the table below. The activity ranges A, B and C refer to pA2 values in the cAMP assay as follows: “A”: pA2 6.5≤x<7.5, “B”: pA2 7.5≤x<8.5, “C”: 8.5≤pA2.
A Kb of 3.16 to 31.6 nM was found for `O=S(=O)(Nc1cc(F)c(OC(F)F)cc1F)c1cn(CCO)c2cc(Cl)ccc12` [Example I-21, 6-chloro-N-[4-(difluoromethoxy)-2,5-difluorophenyl]-1-(2-hydroxyethyl)indole-3-sulfonamide] in this work.
A Kb of 3.16 to 31.6 nM was found for `COc1nc(Cl)c(F)cc1NS(=O)(=O)c1cn(CC(F)F)c2cc(Cl)ccc12` [Example I-32, 6-chloro-N-(6-chloro-5-fluoro-2-methoxypyridin-3-yl)-1-(2,2-difluoroethyl)indole-3-sulfonamide] in this work.
In the case of `CC(O)Cn1cc(S(=O)(=O)Nc2cc(F)c(Br)cc2F)c2ccc(Cl)cc21` (centres unmarked) [Example I-18, N-(4-bromo-2,5-difluorophenyl)-6-chloro-1-(2-hydroxypropyl)indole-3-sulfonamide], the Kb is reported as ≤ 3.16 nM.
A Kb of 31.6 to 316 nM was found for `COc1nc(NS(=O)(=O)c2cn(CCO)c3cc(Cl)ccc23)ccc1Br` [Example I-9, N-(5-bromo-6-methoxypyridin-2-yl)-6-chloro-1-(2-hydroxyethyl)indole-3-sulfonamide] in this work.
A Kb of 3.16 to 31.6 nM was found for `O=S(=O)(Nc1cc(F)c(Br)cc1F)c1cn(CCOCCO)c2cc(Cl)ccc12` [Example I-16, N-(4-bromo-2,5-difluorophenyl)-6-chloro-1-[2-(2-hydroxyethoxy)ethyl]indole-3-sulfonamide] in this work.
A Kb of 31.6 to 316 nM was found for `O=S(=O)(Nc1cc(F)c(OC(F)F)cc1F)c1cn(CC(F)F)c2nc(Cl)ccc12` [Example I-5, 6-chloro-1-(2,2-difluoroethyl)-N-[4-(difluoromethoxy)-2,5-difluorophenyl]pyrrolo[2,3-b]pyridine-3-sulfonamide] in this work.
A Kb of 3.16 to 31.6 nM was found for `COc1nc(Cl)c(F)cc1NS(=O)(=O)c1cn(C)c2cc(Cl)ccc12` [Example I-31, 6-chloro-N-(6-chloro-5-fluoro-2-methoxypyridin-3-yl)-1-methylindole-3-sulfonamide] in this work.
A Kb of 3.16 to 31.6 nM was found for `Cn1cc(S(=O)(=O)Nc2cc(F)c(Br)cc2F)c2ccc(Cl)nc21` [Example I-3, N-(4-bromo-2,5-difluorophenyl)-6-chloro-1-methylpyrrolo[2,3-b]pyridine-3-sulfonamide] in this work.
A Kb of 31.6 to 316 nM was found for `CN(C)CCn1cc(S(=O)(=O)Nc2cc(F)c(Br)cc2F)c2ccc(Cl)cc21` [Example I-15, N-(4-bromo-2,5-difluorophenyl)-6-chloro-1-[2-(dimethylamino)ethyl]indole-3-sulfonamide] in this work.
A Kb of 3.16 to 31.6 nM was found for `O=S(=O)(Nc1cc(F)c(Br)cc1F)c1cn(CC(O)C(F)(F)F)c2cc(Cl)ccc12` (centres unmarked) [Example I-20, N-(4-bromo-2,5-difluorophenyl)-6-chloro-1-(3,3,3-trifluoro-2-hydroxypropyl)indole-3-sulfonamide] in this work.
A Kb of 31.6 to 316 nM was found for `O=S(=O)(Nc1cc(F)c(Br)cc1F)c1cn(CC(F)F)c2nc(Cl)ccc12` [Example I-6, N-(4-bromo-2,5-difluorophenyl)-6-chloro-1-(2,2-difluoroethyl)pyrrolo[2,3-b]pyridine-3-sulfonamide] in this work.
With `O=C(O)Cn1cc(S(=O)(=O)Nc2cc(F)c(Br)cc2F)c2ccc(Cl)cc21` [Example I-11, 2-[3-[(4-bromo-2,5-difluorophenyl)sulfamoyl]-6-chloroindol-1-yl]acetic acid] the Kb was ≤ 3.16 nM.
A Kb of 3.16 to 31.6 nM was found for `Cn1cc(S(=O)(=O)Nc2cc(F)c(OC(F)F)cc2F)c2ccc(Cl)cc21` [Example I-22, 6-chloro-N-[4-(difluoromethoxy)-2,5-difluorophenyl]-1-methylindole-3-sulfonamide] in this work.
A Kb of 3.16 to 31.6 nM was found for `Cn1cc(S(=O)(=O)Nc2cc(F)c(Br)cc2F)c2ccc(Cl)cc21` [Example I-12, N-(4-bromo-2,5-difluorophenyl)-6-chloro-1-methylindole-3-sulfonamide] in this work.
A Kb of 31.6 to 316 nM was found for `CC(=O)Cn1cc(S(=O)(=O)Nc2cc(F)c(Br)cc2F)c2ccc(Cl)cc21` [Example I-17, N-(4-bromo-2,5-difluorophenyl)-6-chloro-1-(2-oxopropyl)indole-3-sulfonamide] in this work.
A Kb of 3.16 to 31.6 nM was found for `O=S(=O)(Nc1cc(F)c(Br)cc1F)c1cn(CC(O)CO)c2nc(Cl)ccc12` (centres unmarked) [Example I-29, N-(4-bromo-2,5-difluorophenyl)-6-chloro-1-(2,3-dihydroxypropyl)pyrrolo[2,3-b]pyridine-3-sulfonamide] in this work.
A Kb of 3.16 to 31.6 nM was found for `O=S(=O)(Nc1cc(F)c(Br)cc1F)c1cn(CC(O)CO)c2cc(Cl)ccc12` (centres unmarked) [Example I-28, N-(4-bromo-2,5-difluorophenyl)-6-chloro-1-(2,3-dihydroxypropyl)indole-3-sulfonamide] in this work.
A Kb of 3.16 to 31.6 nM was found for `O=S(=O)(Nc1cc(F)c(Br)cc1F)c1cn(CC(O)CF)c2cc(Cl)ccc12` (centres unmarked) [Example I-19, N-(4-bromo-2,5-difluorophenyl)-6-chloro-1-(3-fluoro-2-hydroxypropyl)indole-3-sulfonamide] in this work.
A Kb of 3.16 to 31.6 nM was found for `O=S(=O)(Nc1cc(F)c(Br)cc1F)c1cn(CCO)c2cc(Cl)ccc12` [Example I-10, N-(4-bromo-2,5-difluorophenyl)-6-chloro-1-(2-hydroxyethyl)indole-3-sulfonamide] in this work.
A Kb of 31.6 to 316 nM was found for `CCCn1cc(S(=O)(=O)Nc2cc(F)c(OC(F)F)cc2F)c2ccc(Cl)cc21` [Example I-25, 6-chloro-N-[4-(difluoromethoxy)-2,5-difluorophenyl]-1-propylindole-3-sulfonamide] in this work.
A Kb of 31.6 to 316 nM was found for `[N-]=[N+]=NCCn1cc(S(=O)(=O)Nc2cc(F)c(Br)cc2F)c2ccc(Cl)cc21` [Example I-36, 1-(2-azidoethyl)-N-(4-bromo-2,5-difluorophenyl)-6-chloroindole-3-sulfonamide] in this work.
With `COc1nc(OC(F)F)c(F)cc1NS(=O)(=O)c1cn(CCO)c2nc(Cl)ccc12` [Example I-35, 6-chloro-N-[6-(difluoromethoxy)-5-fluoro-2-methoxypyridin-3-yl]-1-(2-hydroxyethyl)pyrrolo[2,3-b]pyridine-3-sulfonamide] the Kb was ≤ 3.16 nM.
A Kb of 31.6 to 316 nM was found for `O=S(=O)(Nc1cc(F)c(Br)cc1F)c1cn(CCCl)c2cc(Cl)ccc12` [Example I-13, N-(4-bromo-2,5-difluorophenyl)-6-chloro-1-(2-chloroethyl)indole-3-sulfonamide] in this work.
A Kb of 3.16 to 31.6 nM was found for `O=S(=O)(Nc1cc(F)c(Br)cc1F)c1cn(CC(F)CO)c2cc(Cl)ccc12` (centres unmarked) [Example I-7, N-(4-bromo-2,5-difluorophenyl)-6-chloro-1-(2-fluoro-3-hydroxypropyl)indole-3-sulfonamide] in this work.
`O=S(=O)(Nc1cc(F)c(OC(F)F)cc1F)c1cn(CC(O)CO)c2cc(Cl)ccc12` (centres unmarked) [Example I-27, 6-chloro-N-[4-(difluoromethoxy)-2,5-difluorophenyl]-1-(2,3-dihydroxypropyl)indole-3-sulfonamide] was tested, and the Kb was ≤ 3.16 nM.
A Kb of 3.16 to 31.6 nM was found for `Cn1cc(S(=O)(=O)Nc2cc(F)c(OC(F)F)cc2F)c2ccc(Cl)nc21` [Example I-4, 6-chloro-N-[4-(difluoromethoxy)-2,5-difluorophenyl]-1-methylpyrrolo[2,3-b]pyridine-3-sulfonamide] in this work.
A Kb of 31.6 to 316 nM was found for `O=S(=O)(Nc1cc(F)c(Br)cc1F)c1cn(CC(F)CO)c2nc(Cl)ccc12` (centres unmarked) [Example I-8, N-(4-bromo-2,5-difluorophenyl)-6-chloro-1-(2-fluoro-3-hydroxypropyl)pyrrolo[2,3-b]pyridine-3-sulfonamide] in this work.
In the case of `COc1nc(Cl)c(F)cc1NS(=O)(=O)c1cn(CC(O)CF)c2cc(Cl)ccc12` (centres unmarked) [Example I-33, 6-chloro-N-(6-chloro-5-fluoro-2-methoxypyridin-3-yl)-1-(3-fluoro-2-hydroxypropyl)indole-3-sulfonamide], the Kb is reported as ≤ 3.16 nM.
A Kb of 3.16 to 31.6 nM was found for `O=S(=O)(Nc1cc(F)c(Br)cc1F)c1cn(CCO)c2nc(Cl)ccc12` [Example I-30, N-(4-bromo-2,5-difluorophenyl)-6-chloro-1-(2-hydroxyethyl)pyrrolo[2,3-b]pyridine-3-sulfonamide] in this work.
A Kb of 31.6 to 316 nM was found for `O=S(=O)(Nc1cc(F)c(Br)cc1F)c1cn(CCCO)c2cc(Cl)ccc12` [Example I-14, N-(4-bromo-2,5-difluorophenyl)-6-chloro-1-(3-hydroxypropyl)indole-3-sulfonamide] in this work.
A Kb of 3.16 to 31.6 nM was found for `O=S(=O)(Nc1cc(F)c(OC(F)F)cc1F)c1cn(CCF)c2cc(Cl)ccc12` [Example I-24, 6-chloro-N-[4-(difluoromethoxy)-2,5-difluorophenyl]-1-(2-fluoroethyl)indole-3-sulfonamide] in this work.
A Kb of 31.6 to 316 nM was found for `COCCn1cc(S(=O)(=O)Nc2cc(F)c(OC(F)F)cc2F)c2ccc(Cl)cc21` [Example I-26, 6-chloro-N-[4-(difluoromethoxy)-2,5-difluorophenyl]-1-(2-methoxyethyl)indole-3-sulfonamide] in this work.
